Strand notation (5' to 3'): a small letter for the sugar, then the base; units joined by * are phosphorothioate-linked, units joined directly phosphodiester-linked; [ ] holds rarer units or linkages, { } end groups; capitals alone tell only the bases. k = constrained ethyl (cEt); [5mC] = 5-methylcytosine; d = 2'-deoxy (DNA)
What was measured:
Yap1 mRNA [1] = assay: Antisense inhibition of human Yap1 in A-431 cells by cEt gapmers, single dose (Example 2, RTS4814); format: cell-based
Summary of the method: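 Yap1 mRNA levels, by real-time RT-PCR (RTS4814) and corrected for total RNA via RIBOGREEN, are given as percent of untreated cells. Gapmers (16-mer, cEt wings, phosphorothioate, 5-methylC) were delivered without transfection at 2,000 nM to A-431 cells for about 48 hours.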

Yap1 mRNA [2] = assay: Dose-dependent inhibition of human Yap1 in A-431 cells (Example 8, 10,000 cells per well, RTS4814); format: cell-based; details: free uptake, approximately 48 hours, RTS4814; for Yap1 mRNA, % UTC: A-431 cells, 10,000 cells per well; for IC50: A-431 cells, linear regression on log/linear plot
Summary of the method: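 Yap1 mRNA, normalized to RIBOGREEN total RNA and expressed as % untreated control, was read with RTS4814 about 48 h after free-uptake oligonucleotide treatment of A-431 cells at 10,000 cells/well. IC50 derived by linear regression of log/linear data.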

[3] = Yap1 mRNA as percent of untreated control, A-431 cells, 3-10-3 cEt gapmers targeting SEQ ID NO.: 1, and 2, Table 30
[4] = Yap1 mRNA as percent of untreated control, A-431 cells, 3-10-3 cEt gapmers targeting SEQ ID NO.: 1, and 2, Table 31
[5] = Table 32, Yap1 mRNA, percent of untreated control, 3-10-3 cEt gapmers targeting SEQ ID NO.: 1, and 2
[6] = Table 22, Yap1 mRNA as percent of untreated control, 3-10-3 cEt gapmers, single dose
[7] = Table 5, A-431 cells, 5,000 cells per well, free uptake, 2,000 nM modified oligonucleotide, approx. 48 hours, RTS4814, normalized to RIBOGREEN, Yap1 mRNA relative to untreated control cells
[8] = Table 18, A-431 cells, 5,000 cells per well, free uptake, 2,000 nM modified oligonucleotide, approx. 48 hours, RTS4814, normalized to RIBOGREEN, Yap1 mRNA as percent of untreated control

Row | Substance | Yap1 mRNA, % UTC (Yap1 mRNA [2]; 31.3 nM) [% UTC] | Yap1 mRNA, % UTC (Yap1 mRNA [2]; 125.0 nM) [% UTC] | Yap1 mRNA, % UTC (Yap1 mRNA [2]; 500.0 nM) [% UTC] | Yap1 mRNA, % UTC (Yap1 mRNA [2]; 2000.00 nM) [% UTC] | IC50 (Yap1 mRNA [2]) [µM] | other results
1 | 1074672 (antisense k[5mC]*k[5mC]*kA*dA*dG*dT*dA*dG*d[5mC]*dT*dT*dT*dG*kA*kT*k[5mC]) [compound 1074672] | 34 | 18 | 10 | 7 | < 0.02 | YAP1 (% UTC) (Yap1 mRNA [1]; [3]): 6 % UTC
2 | 1075249 (kA*kT*kT*dA*d[5mC]*dG*dA*dT*dT*dA*dG*dA*dT*k[5mC]*kA*kG; antisense) [compound 1075249] | 77 | 37 | 16 | 8 | 0.1 | YAP1 (% UTC) (Yap1 mRNA [1]; [4]): 5 % UTC
3 | 1075699 (kG*kA*kT*dT*dT*dA*dT*dA*d[5mC]*dT*d[5mC]*dA*dG*kG*kT*kT; antisense) [compound 1075699] | 26 | 6 | 3 | 2 | < 0.02 | YAP1 (% UTC) (Yap1 mRNA [1]; Table 33, Yap1 mRNA, percent of untreated control, 3-10-3 cEt gapmers targeting SEQ ID NO.: 1, and 2): 4 % UTC
4 | 1076017 (k[5mC]*kT*kA*dA*dT*dA*dG*dG*dA*dT*dG*dG*dA*kT*kT*k[5mC]; antisense) [compound 1076017] | 59 | 25 | 9 | 5 | 0.03 | YAP1 (% UTC) (Yap1 mRNA [1]; [4]): 5 % UTC
5 | 1076114 (kA*kT*kT*dA*dG*dT*dA*dA*dG*d[5mC]*dT*dG*dA*kG*kG*kA; antisense) [compound 1076114] | 34 | 11 | 6 | 5 | < 0.02 | YAP1 (% UTC) (Yap1 mRNA [1]; [5]): 3 % UTC
6 | 1074737 (kT*kT*k[5mC]*dA*dG*dG*dT*d[5mC]*dA*dG*dT*dA*d[5mC]*kA*kG*kA; antisense) [compound 1074737] | 50 | 21 | 8 | 6 | < 0.02 | YAP1 (% UTC) (Yap1 mRNA [1]; [4]): 7 % UTC
7 | 1076427 (k[5mC]*kA*kA*dA*dT*dT*dT*dA*d[5mC]*dT*dG*dA*dT*k[5mC]*kT*k[5mC]; antisense) [Compound 1076427] | – | – | – | – | – | YAP1 (% UTC) (Yap1 mRNA [1]; Table 25, Yap1 mRNA as percent of untreated control, 3-10-3 cEt gapmers targeting SEQ ID NO.: 1, and 2): 3 % UTC
8 | 1076080 (k[5mC]*kA*kT*dT*dA*dG*d[5mC]*dA*dG*dT*dT*d[5mC]*dA*k[5mC]*kT*kA; antisense) [compound 1076080] | – | – | – | – | – | YAP1 (% UTC) (Yap1 mRNA [1]; [3]): 55 % UTC
9 | 1074160 (kG*k[5mC]*kG*dA*dG*d[5mC]*dG*dA*dG*dG*dG*d[5mC]*dT*kA*k[5mC]*kG; antisense) [compound 1074160] | – | – | – | – | – | YAP1 (% UTC) (Yap1 mRNA [1]; [3]): 86 % UTC
10 | 1074344 (antisense kT*kG*kA*dG*dA*d[5mC]*dA*dT*d[5mC]*d[5mC]*d[5mC]*dG*dG*kG*kA*kG) [Compound 1074344] | – | – | – | – | – | YAP1 (% UTC) (Yap1 mRNA [1]; [6]): 99 % UTC
11 | 716506 (antisense kT*k[5mC]*kT*dG*d[5mC]*dA*dG*dT*dG*dG*d[5mC]*d[5mC]*dA*kT*kT*kT) [Compound 716506] | – | – | – | – | – | YAP1 (% UTC) (Yap1 mRNA [1]; [7]): 62 % UTC
12 | 1074471 (k[5mC]*k[5mC]*k[5mC]*d[5mC]*d[5mC]*d[5mC]*d[5mC]*dA*d[5mC]*d[5mC]*dG*dA*d[5mC]*k[5mC]*k[5mC]*kT; antisense) [Compound 1074471] | – | – | – | – | – | YAP1 (% UTC) (Yap1 mRNA [1]; Table 21, Yap1 mRNA, percent of untreated control, 3-10-3 cEt gapmers targeting SEQ ID NO.: 1 and 2): 69 % UTC
13 | 1076452 (kG*kG*kA*d[5mC]*dT*dA*dT*dA*dG*d[5mC]*d[5mC]*d[5mC]*dT*kT*kA*kA; antisense) [Compound 1076452] | – | – | – | – | – | YAP1 (% UTC) (Yap1 mRNA [1]; [8]): 16 % UTC
14 | 716521 (antisense k[5mC]*kA*kG*d[5mC]*dA*d[5mC]*dG*dG*dT*dG*dT*dA*dA*kG*kA*k[5mC]) [Compound 716521] | – | – | – | – | – | YAP1 (% UTC) (Yap1 mRNA [1]; [7]): 79 % UTC
15 | 1075556 (kT*kG*kG*d[5mC]*dA*dA*dA*dA*dG*dA*dG*dT*dG*kG*kT*kG; antisense) [Compound 1075556] | – | – | – | – | – | YAP1 (% UTC) (Yap1 mRNA [1]; [8]): 68 % UTC
16 | 716452 (kT*kT*kA*d[5mC]*d[5mC]*dA*dA*dA*dA*d[5mC]*dA*dA*d[5mC]*kT*kA*k[5mC]; antisense) [Compound 716452] | – | – | – | – | – | YAP1 (% UTC) (Yap1 mRNA [1]; [7]): 98 % UTC
17 | 1074994 (antisense kA*kA*kA*d[5mC]*dT*dA*dA*dA*dT*dG*dG*dA*d[5mC]*k[5mC]*kG*kG) [compound 1074994] | – | – | – | – | – | YAP1 (% UTC) (Yap1 mRNA [1]; [5]): 94 % UTC
18 | 1076328 (kA*k[5mC]*kT*dG*dA*dA*d[5mC]*d[5mC]*dG*d[5mC]*dT*dG*d[5mC]*k[5mC]*kT*k[5mC]; antisense) [Compound 1076328] | – | – | – | – | – | YAP1 (% UTC) (Yap1 mRNA [1]; [6]): 33 % UTC
